pIC50: −log10 of the molar value. Converted amounts (≈) assume the structure as drawn. Some results are limits rather than exact numbers.

Usually pIC50 stands for the IC50 on a negative log10 scale, so that one unit is a factor of ten. Low values mean a large IC50, high ones a small IC50. Usually ED50 stands for the dose that gives a 50% effect, or the effect in half of the subjects. What is called solubility (thermodynamic) is the concentration in solution at equilibrium with solid. One may read the efflux ratio as a quotient of directional permeabilities that is used to spot active efflux.

Data set [1] can be described thus: Permeability across apical to basolateral side in human Caco2 cells. It is filed as ADME, cell-based. The note with it: Caco-2, read-out: permeability.
The target of data set [2] is T1, Glucocorticoid receptor (Homo sapiens, UniProt P04150).
T1 sequence (P04150 whole entry): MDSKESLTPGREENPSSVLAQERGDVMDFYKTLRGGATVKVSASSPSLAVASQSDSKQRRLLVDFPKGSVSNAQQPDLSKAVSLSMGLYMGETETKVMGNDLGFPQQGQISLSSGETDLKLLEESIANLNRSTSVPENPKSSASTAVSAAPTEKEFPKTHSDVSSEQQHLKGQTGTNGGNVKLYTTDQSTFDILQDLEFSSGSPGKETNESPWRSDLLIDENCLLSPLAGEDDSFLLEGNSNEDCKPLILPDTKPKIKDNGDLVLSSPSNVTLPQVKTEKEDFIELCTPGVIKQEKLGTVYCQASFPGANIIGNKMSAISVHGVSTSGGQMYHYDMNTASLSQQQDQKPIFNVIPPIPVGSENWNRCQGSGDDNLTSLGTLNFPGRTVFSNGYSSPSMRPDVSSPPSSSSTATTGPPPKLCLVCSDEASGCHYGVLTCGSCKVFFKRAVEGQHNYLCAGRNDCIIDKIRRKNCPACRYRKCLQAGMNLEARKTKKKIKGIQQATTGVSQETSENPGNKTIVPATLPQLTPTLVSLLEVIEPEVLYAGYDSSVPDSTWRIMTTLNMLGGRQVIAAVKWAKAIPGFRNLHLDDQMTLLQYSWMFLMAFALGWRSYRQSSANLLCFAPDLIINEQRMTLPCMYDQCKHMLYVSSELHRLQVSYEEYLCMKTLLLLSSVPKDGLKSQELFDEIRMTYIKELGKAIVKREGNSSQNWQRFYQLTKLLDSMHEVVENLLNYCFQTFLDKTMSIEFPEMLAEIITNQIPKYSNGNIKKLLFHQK
The experiment in a line: Transactivation of glucocorticoid receptor in human HeLa cells harboring MMTV promoter at 2 uM by luciferase reporter gene assay relative to dexamethasone. The class given is cell-based. The note with it: read-out: Efficacy. (In general: A reporter such as luciferase makes a cellular process visible.)

The target of data set [3] is T1, Glucocorticoid receptor.
For data set [4], the system named is Mus musculus. The experiment in a line: Toxicity in po dosed B10.RIII mouse assessed as insulin level in serum administered po qd for 5 weeks relative to control. It is filed as organism-based. The note with it: in vivo, 840 h.
A short description of data set [5]: Volume of distribution at steady state in Sprague-Dawley rat at 2 mg/kg, iv. The class given is ADME, organism-based. Also noted: dose 2 mg/kg, route intravenous. The note with it: in vivo, read-out: Vdss.
The subject of data set [6] is Mus musculus. Put plainly: Toxicity in B10.RIII mouse assessed as free fatty acid level in serum at 30 mg/kg, po qd for 5 weeks relative to control. It is filed as organism-based. Also noted: dose 30 mg/kg, route oral. The note with it: in vivo, 840 h.
The subject of data set [7] is Mus musculus. Put plainly: Toxicity in B10.RIII mouse assessed as body fate level in serum at 30 mg/kg, po qd for 5 weeks relative to control. The class given is organism-based. Also noted: dose 30 mg/kg, route oral. The note with it: in vivo, 840 h.
The next data set has as its target T2, Progesterone receptor (Homo sapiens, UniProt P06401).
T2 sequence (P06401 whole entry): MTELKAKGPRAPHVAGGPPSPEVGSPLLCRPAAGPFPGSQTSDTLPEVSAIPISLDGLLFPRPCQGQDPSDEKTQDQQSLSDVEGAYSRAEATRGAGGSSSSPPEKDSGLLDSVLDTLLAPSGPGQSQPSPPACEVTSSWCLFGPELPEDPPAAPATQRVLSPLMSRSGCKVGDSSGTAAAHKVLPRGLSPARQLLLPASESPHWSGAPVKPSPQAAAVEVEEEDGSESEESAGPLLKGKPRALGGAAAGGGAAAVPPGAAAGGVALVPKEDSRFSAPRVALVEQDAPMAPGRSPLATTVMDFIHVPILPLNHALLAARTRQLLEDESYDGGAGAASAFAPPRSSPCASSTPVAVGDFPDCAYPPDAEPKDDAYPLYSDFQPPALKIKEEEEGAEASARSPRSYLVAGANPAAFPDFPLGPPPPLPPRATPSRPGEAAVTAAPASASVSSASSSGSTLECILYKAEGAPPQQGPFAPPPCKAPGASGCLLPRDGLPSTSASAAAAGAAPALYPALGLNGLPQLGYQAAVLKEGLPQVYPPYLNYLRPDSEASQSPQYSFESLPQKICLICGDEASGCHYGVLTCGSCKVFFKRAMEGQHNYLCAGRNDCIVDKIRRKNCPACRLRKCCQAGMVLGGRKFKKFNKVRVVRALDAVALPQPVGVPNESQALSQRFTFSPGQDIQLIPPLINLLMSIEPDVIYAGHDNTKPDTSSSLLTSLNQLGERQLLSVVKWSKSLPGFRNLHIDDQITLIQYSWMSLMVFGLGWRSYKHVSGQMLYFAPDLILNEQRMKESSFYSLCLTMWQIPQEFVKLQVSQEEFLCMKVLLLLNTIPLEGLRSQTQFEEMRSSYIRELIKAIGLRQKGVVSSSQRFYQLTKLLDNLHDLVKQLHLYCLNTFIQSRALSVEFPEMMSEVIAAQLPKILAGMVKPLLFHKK
Put plainly: Displacement of TAMRA-labeled mifepristone from progesterone receptor (unknown origin) by fluorescence polarization assay. For orientation: In fluorescence polarisation assays a small probe gives low polarisation when free and higher when bound to something large.

Data set [8] relates to Mus musculus. The experiment in a line: Toxicity in po dosed B10.RIII mouse assessed as triglyceride level in serum administered po qd for 5 weeks relative to control. The note with it: in vivo, 840 h. The class given is organism-based.
Data set [9] concerns Mus musculus. Put plainly: Antiinflammatory activity in po dosed mouse assessed as inhibition of LPS-induced TNFalpha production. The class given is functional.
Data set [10] in a line: Equilibrium solubility of the compound at pH 2.2. The class given is physicochemical. The note with it: buffer.
The target of data set [11] is T1, Glucocorticoid receptor. The source holds these as a separate data set.
Description: Agonist activity at glucocorticoid receptor in human foreskin fibroblasts assessed as inhibition of IL-1-induced IL-6 production by trans-repression assay
Data set [12] deals with Mus musculus. The experiment in a line: Toxicity in B10.RIII mouse assessed as triglyceride level in serum at 100 mg/kg, po qd for 5 weeks relative to control. The class given is organism-based. Also noted: dose 100 mg/kg, route oral. The note with it: in vivo, 840 h.
Data set [13] in a line: Efflux ratio of permeability from basolateral to apical side over apical to basolateral side in human Caco2 cells. The class given is ADME, cell-based. The note with it: Caco-2. (In general: Caco-2 cells form a polarised layer with tight junctions and transporters.)

As to `Cc1ccc(F)cc1C(C)(C)C[C@@](O)(Cc1cc2cnccc2[nH]1)C(C)(C)C`, in [1], the Papp A→B amounted to 13.4 ×10⁻⁶ cm/s. The Emax at 2 µM at Glucocorticoid receptor [2] was found to be 1%. The results for the pIC50 on Glucocorticoid receptor [3], at Progesterone receptor and against Glucocorticoid receptor [11] were 8.70, 6.54 and 7.57, respectively. Moreover, the Activity entry is given as “Dose-dependent effect” in the data set with Mus musculus [4]; 25% with Mus musculus [6]; -7% in the data set with Mus musculus [7]; “Dose-dependent effect” in the data set with Mus musculus [8]; 113% in the data set with Mus musculus [12]. The Vd in data set [5] came out at 4 L/kg. For the same compound, the ED50 in the data set on Mus musculus [9] is less than 1 mg/kg. The solubility (thermodynamic) in data set [10] worked out at 840 µg/mL (≈ 2200 µM). Moreover, the efflux ratio in data set [13] was 1.3.

Source of the values: ChEMBL document CHEMBL3232739, “Discovery of a potent and dissociated non-steroidal glucocorticoid receptor agonist containing an alkyl carbinol pharmacophore” (Bioorg Med Chem Lett, 2014).
